Measurements: paper PMC10703884, “Targeting the COMMD4–H2B protein complex in lung cancer” (British Journal of Cancer, 2023)
No end group written: not given here.

How the values were obtained:
GST-COMMD4 = assay: FLAG immunoprecipitation, FLAG-H2B constructs with COMMD4; format: binding; details: FLAG-H2B immunoprecipitated from HEK293T cells, anti-FLAG M2 Dynabeads, 4 °C, immunoblot for GST-COMMD4 and FLAG
Procedure: (§1) For siRNA transfections, cells were transfected with negative control or COMMD4 siRNA #2 (CCAUGUCCCUCUCAGCAGA[dT][dT] MISSION® siRNA, Sigma-Aldrich) using RNAiMax (Life Technologies) as previously described and samples were analysed 48 to 72 h post-transfection. The H2B wild-type (FLAG-H2BWT) and mutant (FLAG-H2BMUT1) expression constructs were generated with the 10-amino acid peptide and the corresponding mutant cloned into the expression vector pCDNA3.1/(+)-N-DYK containing an N-terminal FLAG tag and a C-terminal nuclear localisation signal (AAKRVKLDS) (GenScript). A70K FLAG-COMMD4 expression construct was generated by mutating the corresponding COMMD4-FLAG construct to harbour an A70K mutation (GenScript). Cells were mock-transfected, or transfected with FLAG-H2BWT/FLAG-H2BMUT1, or COMMD4-FLAG/A70K with FuGENE® HD (Promega) using the manufacturer’s protocol and analysed 24 h post-transfection.
Co-immunoprecipitations were performed as previously summarised, using ice-cold NP40 buffer. Assays for co-immunoprecipitations were performed at 4 °C from HEK293T, transiently expressing the FLAG-H2B WT or MUT plasmid. Proteins were captured using anti-FLAG M2 Dynabeads (ThermoFisher) and washed three times in NP40 buffer prior to analysis. […]

[1] = system: H460, H1299 and CRL5889 NSCLC cells; assay: CellTiter-Glo 2.0 luminescent cell viability after IR, NSCLC cells; format: cell-based; details: CellTiter-Glo 2.0, 48 h post-irradiation, three independent experiments
Procedure: H1299, CRL5889 and H460 cells were cultured in Roswell Park Memorial Institute (RPMI) 1640 medium (Life Technologies) containing 10% foetal bovine serum (Thermo Fisher Scientific). Human bronchial epithelial cells (HBEC3-KT) were maintained in keratinocyte serum-free medium supplemented with epidermal growth factor and bovine pituitary extract (Life Technologies). The histology features and origin of all cell lines used have been previously described. Cell lines were authenticated using STR profiling. Cells were grown in a humidified incubator at 37 °C/5% CO2 atmosphere. All cell lines were verified to be free of mycoplasma contamination.
Irradiations were done at room temperature using a ^137Cs source (Gammacell 40 Exactor [MDS Nordion]; dose rate 1.1 Gy/min). […]
For siRNA transfections, cells were transfected with negative control or COMMD4 siRNA #2 (CCAUGUCCCUCUCAGCAGA[dT][dT] MISSION® siRNA, Sigma-Aldrich) using RNAiMax (Life Technologies) as previously described and samples were analysed 48 to 72 h post-transfection. […] Cells were mock-transfected, or transfected with FLAG-H2BWT/FLAG-H2BMUT1, or COMMD4-FLAG/A70K with FuGENE® HD (Promega) using the manufacturer’s protocol and analysed 24 h post-transfection.
A CellTiter-Glo 2.0 Luminescent assay (Promega Corporation) was carried out as previously described. […] Luminescence was measured using a PHERAstar FSX detection system (BMG Labtech). […]

HBEC3-KT cells = assay: Immunofluorescence γH2AX and MDC1 foci, HBEC3-KT cells; format: cell-based, Human; details: 6 Gy IR, 50 cells per condition, three independent experiments
Procedure: as §1
NSCLC and control cells transfected with siRNA or H2B plasmids were grown in optical glass bottom 96-well plates (Cellvis). Post-treatment, cells were pre-extracted with ice-cold extraction buffer (20 mM HEPES (pH 8), 20 mM NaCl, 5 mM MgCl2, 1 mM ATP, 0.5% NP40), to remove the soluble proteins and processed as previous. […] Images were analysed using the InCarta Image Analysis software (GE Healthcare Life Sciences) where a minimum of 50 nuclei were quantified per experiment. […]

[2] = system: H460, H1299 and CRL5889 NSCLC cells; assay: Annexin V-FITC / propidium iodide apoptosis, NSCLC cells; format: cell-based; details: flow cytometry, three independent experiments
Procedure: as §1, with “A70K FLAG-COMMD4 expression construct was generated by mutating the corresponding COMMD4-FLAG construct to harbour an A70K mutation (GenScript).” left out
The Annexin V-FITC apoptosis kit (United Bioresearch, ALX-850-020-K101, Enzo Life Sciences, Farmingdale, NY, USA) was used to measure viable and apoptotic cells, as previously described. […] CytExpert 2.0 software was used for data acquisition and analysed using the FlowJo v10 software.
Fig. 5 Induction of mitotic catastrophe and apoptosis in NSCLC cells. a Emerin and phalloidin staining respectively in three NSCLC and control HBEC3-KT cells. […] Asterix (*) denotes *P < 0.05 and ** P < 0.005 from 100 cells counted. […] The live cells were stained with Annexin V-FITC and propidium iodide and analysed by flow cytometer. […]

With “FLAG-H2BWT: 10-amino acid peptide cloned into expression vector containing an N-terminal FLAG tag and a C-terminal nuclear localisation signal ({FLAG}-SFVNDIFERIAAKRVKLDS)” the “binding of overexpressed FLAG-H2B construct to COMMD4” value (GST-COMMD4) was “interacted with COMMD4”, the “sensitivity to ionising radiation (luminescent viability)” value [1] was “hypersensitive to IR compared to FLAG-H2BMUT1 and mock-transfected cells” and the “γH2AX and MDC1 (DNA repair) foci” value (HBEC3-KT cells) was “exhibited increased DNA repair foci”. The “early and late apoptosis” value [2] was “significantly increased early and late apoptosis compared to FLAG-H2BMUT1 and mock-transfected cells”.
